{"source": "paper PMC4987650", "about": "“Structural Investigation of Park’s Nucleotide on Bacterial Translocase MraY: Discovery of Unexpected MraY Inhibitors” (Scientific Reports, 2016)", "format_in_all_cases": "biochemical", "key": {"MraYBS T53A mutant": {"biological_target": "T1, MraYBS T53A mutant (Bacillus subtilis, UniProt Q03521, T53A)", "T1 construct": "MBP; made in house", "assay": "HPLC-based MraY functional assay, mutant MraY", "conditions": "consumption of 6 in one-hour reaction", "experimental": "(§1) The purified MraY from Bacillus subtilis was prepared as described in our previous reports. For 5 and 7–10, the reaction mixture containing MraYBS (10 μg/mL), C55P (200 μM) in 40 μL reaction buffer (30 mM Tris, 10 mM MgCl2, 10 mM NaCl, 0.1 mM Tween-20, 2.5% DMSO, pH 8.0) were pre-incubated at 37 °C for 15 min. The reactions were initiated by the addition of Park’s nucleotide analogues (10 μM) and incubated at 37 °C for 1 h. The reaction mixtures were added by uridine (0.01 mg/mL) as the internal standard and heated to 100 °C to stop the transferring reaction. The samples were analyzed by RP-C18 HPLC with gradient elution of 0.25 M NH4HCO3(aq)/15% MeOH in water (100:0 to 0:100) at a flow rate of 1 mL/min over 45 min, and the peaks of substrates were monitored at UV 260 nm. […] The reaction mixtures were heated to 100 °C to stop the transferring reaction, and samples were analyzed by an anion-exchange column (SAX1, Supelco Co., 5 μm, 4.6 × 250 mm) with a linear gradient elution of NH4OAc (20 mM to 1 M in MeOH) at a flow rate of 1.0 mL/min over 30 min. The fluorescent substrates were monitored with λex 466 nm/λem 535 nm by fluorescence detector. […]"}, "MraYBS K226A mutant": {"biological_target": "T2, MraYBS K226A mutant (Bacillus subtilis, UniProt Q03521, K226A)", "T2 construct": "MBP; made in house", "assay": "HPLC-based MraY functional assay, mutant MraY", "conditions": "consumption of 6 in one-hour reaction", "experimental": "as §1"}, "MraYBS F228A mutant": {"biological_target": "T3, MraYBS F228A mutant (Bacillus subtilis, UniProt Q03521, F228A)", "T3 construct": "MBP; made in house", "assay": "HPLC-based MraY functional assay, mutant MraY", "conditions": "consumption of 6 in one-hour reaction", "experimental": "as §1"}, "MraYBS": {"biological_target": "T4, MraYBS (Bacillus subtilis, UniProt Q03521)", "T4 construct": "MBP; made in house", "T4 sequence (Q03521 1-324)": "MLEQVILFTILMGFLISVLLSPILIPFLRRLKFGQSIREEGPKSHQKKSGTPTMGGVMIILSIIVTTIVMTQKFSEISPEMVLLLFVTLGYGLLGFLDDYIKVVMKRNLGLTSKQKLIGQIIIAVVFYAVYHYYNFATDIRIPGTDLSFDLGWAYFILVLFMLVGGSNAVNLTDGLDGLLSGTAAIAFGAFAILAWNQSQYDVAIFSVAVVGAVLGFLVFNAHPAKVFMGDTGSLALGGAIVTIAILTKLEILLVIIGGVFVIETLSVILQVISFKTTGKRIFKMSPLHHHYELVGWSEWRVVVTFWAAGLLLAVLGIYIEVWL", "assay": "HPLC-based MraY functional assay (substrate activity)", "experimental": "The purified MraY from Bacillus subtilis was prepared as described in our previous reports. […] […] The reaction mixtures were added by uridine (0.01 mg/mL) as the internal standard and heated to 100 °C to stop the transferring reaction. The samples were analyzed by RP-C18 HPLC with gradient elution of 0.25 M NH4HCO3(aq)/15% MeOH in water (100:0 to 0:100) at a flow rate of 1 mL/min over 45 min, and the peaks of substrates were monitored at UV 260 nm. For 6 and 11–17, the reaction mixture containing MraYBS (10 μg/mL), C55P (200 μM), 6-(7-Nitro-2,1,3-benzoxadiazol-4-ylamino)hexanoic acid (5 μM, internal standard) in 10 μL reaction buffer (30 mM Tris, 10 mM MgCl2, 10 mM NaCl, 0.1 mM Tween-20, 2.5% DMSO, pH 8.0) were pre-incubated at 37 °C for 15 min. […] The reaction mixtures were heated to 100 °C to stop the transferring reaction, and samples were analyzed by an anion-exchange column (SAX1, Supelco Co., 5 μm, 4.6 × 250 mm) with a linear gradient elution of NH4OAc (20 mM to 1 M in MeOH) at a flow rate of 1.0 mL/min over 30 min. The fluorescent substrates were monitored with λex 466 nm/λem 535 nm by fluorescence detector."}, "MraYBS Q271A mutant": {"biological_target": "T5, MraYBS Q271A mutant (Bacillus subtilis, UniProt Q03521, Q271A)", "T5 construct": "MBP; made in house", "assay": "HPLC-based MraY functional assay, mutant MraY", "conditions": "consumption of 6 in one-hour reaction", "experimental": "as §1"}}, "data": [{"molecule": "CC(=O)N[C@H]1[C@@H](OP(=O)(O)OP(=O)(O)OC[C@H]2O[C@@H](n3ccc(=O)[nH]c3=O)[C@H](O)[C@@H]2O)O[C@H](CO)[C@@H](O)[C@@H]1O[C@H](C)C(=O)N[C@@H](C)C(=O)N[C@H](CCC(=O)N[C@@H](CCCCNC(=O)CCCCCNc1ccc([N+](=O)[O-])c2nonc12)C(=O)N[C@H](C)C(=O)N[C@H](C)C(=O)O)C(=O)O", "note": "[Compound 6, NBD-Park’s nucleotide]", "values": [{"measurement": "Relative activity", "setting": "MraYBS T53A mutant", "result": 18, "unit": "%"}, {"measurement": "Relative activity", "setting": "MraYBS K226A mutant", "result": 100, "unit": "%"}, {"measurement": "Relative activity", "setting": "MraYBS F228A mutant", "result": 98, "unit": "%"}, {"measurement": "substrate consumption", "setting": "MraYBS; C55P (200 μM) as polyprenyl phosphate substrate, substrate 10 μM, within 1 h (60 min)", "result": "completely consumed"}, {"measurement": "Relative activity", "setting": "MraYBS; WT MraYBS, consumption of 6 in one-hour reaction", "result": 100, "unit": "%"}, {"measurement": "Relative activity", "setting": "MraYBS Q271A mutant", "result": 16, "unit": "%"}]}]}
